According to US6369066B1, “Substituted 1,3-oxathiolanes with antiviral properties” (BioChem Pharma, Inc., priority 1990, dated 2002):
Converted amounts (≈) assume the structure as drawn. Like-named read-outs stand apart in the source and are kept apart here.

Key:
Assay type in all cases: cell-based
[1] = tested on: HIV-1 HXB2D-65 K→R (ddC resistance mutation); test: IC50 in CBMCs with constructed mutated virus HXB2D-65; settings: Human immunodeficiency virus 1, read-out: IC50 HXB2D-65 K→R
Description: (§1) In short, viruses (HTLV-IIIB) that had initially been grown on MT-4 cells were passaged onto phytohemaglutinin-prestimulated cord blood mononuclear cells (CBM). For subsequent analysis, samples of CBM (5×10^5 cells per mL) were pretreated with various concentrations of the different compounds for 4 h and were then inoculated with CBL-grown HIV-1 at a multiplicity of infection of 1.0 in the concentration of the compound used for the pretreatment. Fresh medium, including the appropriate concentration of the compound was added three times weekly, and fresh phytohemaglutinin-prestimulated CBM (5×10^5 cells per mL) were added at 2-day intervals. The calculation of IC50 was determined on the basis of RT levels in culture fluids as described in Gao et al., (1992), J. Virol. 66: 12-19.
Determination of IC50 (μM) in Different Mutated Isolates of HIV-1 in the Presence of Different Antiviral Compounds
The procedure is similar to the procedure used in the CBM assay, with the exception that constructed virus and construted mutated virus were used.
The constructed virus HXB2D-65 correspond to the ddC resistance mutation and the constructed virus HXB2D-184 correspond to the 3TC™ and FTC resistance mutation.

HIV-1 (HTLV-IIIB) = test: CBM assay, IC50 from RT levels in culture fluids; settings: Human immunodeficiency virus 1
Description: Assays on cord blood mononuclear cells were done substantially as described in Gu et al., J. Virol. (1992), 66:7128-7135.
as §1

human hepatitis B virus = test: Inhibition of human hepatitis B virus in 2.2.15 cells, extracellular HBV DNA; settings: 10 day treatment
Description: Inhibition of Human Hepatitis B Virus.
(§2) The method used for this test is described in detail in Korba et al., Antiviral research 15, 217-228 (1992) which is shortly described as follows: Hep G2 cells transfected with human hepatitis B virus genomic DNA (2.2.15 cells) were grown and maintained in RPMI-1640 culture medium containing %5 foetal bovine serum, 2 mM glutamine and 50 μg/ml gentamicin sulphate, and checked routinely for G418 resistance. Cultures of 2.2.15 cells were grown to confluence in 24 well tissue culture plates and maintained for 2 to 3 days in that condition prior to drug treatment.
Drugs were dissolved in sterile water or sterile 50% DMSO in water at concentrations 100-fold higher than the higher test concentration. These solutions were diluted as needed in culture medium.
The culture medium on the confluent cells was changed 24 hours prior to exposure to test compounds. During the 10 day treatment, the culture medium was changed daily. After 10 days of the treatment, the culture medium was collected and frozen at −70° C. for HBV DNA analysis. […]
A purified 3.2 kb EcoR1 HBV DNA fragment was labeled with [^32p]dCTP by nick translation and used as a probe to detect HBV DNA on the dot-blot by DNA hybridization. After washing, the hybridized blot was dried and ^32p was quantified using an Ambis beta scanner.

HIV-1 (strain RF) = test: Inhibition of syncytium formation in C8166 cells
Description: Inhibition of Syncytium Formation
C8166 cells were infected with HIV-1 (strain RF) at a moil of 1×10^−3 infectious units/cell and adsorbed at room temperature for 60 minutes. After adsorption, the cells were washed three times in growth medium. Aliquots of 10^5 cells were added to each well of 24-well plates containing serial dilution of test compounds at final concentrations of 50 μg/ml to 0.05 μg/ml in RPMI® 1640 growth medium. Untreated infected cells and untreated uninfected cells were also included as controls. The plates were incubated at 37° C./5% CO2 for 3-4 days in humidified containers. The cells were examined daily for evidence of HIV-1 induced syncytium formation. The syncytia were quantified by reference to the untreated infected controls, and the dose of compound required to reduce the cytopathic effect by 50% (ID50) was calculated.

MT-4 = test: Cell culture inhibitory dose (CCID50) in MT-4; settings: cell counting, trypan blue exclusion, 7 days post drug treatment
Description: (§3) Evaluation of Cell Culture Inhibitory Dose (CCID50)
(§4) Cell growth was determined by cell counting and viability by trypan blue exclusion 7 days post drug treatment. CCID50 is expressed as the drug concentration which inhibits 50% of cell growth.

[2] = tested on: 2.2.15 cells (Hep G2 cells transfected with human hepatitis B virus genomic DNA); test: Cytotoxicity (CD50) reported with HBV assay; settings: HBV table
Description: as §2

CBMCs = test: Cell culture inhibitory dose (CCID50) in CBMCs; settings: cell counting, trypan blue exclusion, 7 days post drug treatment
Description: as §3, §4

[3] = Human immunodeficiency virus 1, C8166 cells, HIV-1 strain RF, syncytium formation, 3-4 days, read-out: IC50 (dose reducing the cytopathic effect by 50%, ID50)

Compound | IC50 [1] [µM] | IC50 (HIV-1 (HTLV-IIIB)) [µg/mL] | ID50 (HBV) (human hepatitis B virus) [µg/mL] | IC50 (HIV-1 (strain RF); Human immunodeficiency virus 1, C8166, read-out: IC50 (dose reducing the cytopathic effect by 50%, ID50)) [µg/mL] | CCID50 MT-4 (MT-4) [µM] | CD50 (HBV) [2] [µg/mL] | CCID50 CBMCs (CBMCs) [µM] | IC50 (HIV-1 (strain RF); [3]) [µg/mL]
Nc1ccn([C@@H]2CO[C@H](CO)S2)c(=O)n1 [Compound #2, 2S-hydroxymethyl-4S-(cytosin-1′-yl)-1,3-oxathiolane] | 3.5 | 0.03 to 1.22 (≈ 0.131 to 5.32 µM) | 4 (≈ 17.4 µM) | 0.08 (≈ 0.349 µM) | >500 | >10 | 105 | 
Nc1nc(=O)n([C@H]2CO[C@@H](CO)S2)cc1F [compound 3, 2R-hydroxymethyl-4R-(5′-fluorocytosin-1′-yl)-1,3-oxathiolane] | 11.5 | 0.002 to 0.05 (≈ 0.00809 to 0.202 µM) |  |  | >500 |  | >500 | 0.17 (≈ 0.688 µM)
Nc1nc(=O)n([C@@H]2CO[C@H](CO)S2)cc1F [compound 4, 2S-hydroxymethyl-4S-(5′-fluorocytosin-1′-yl)-1,3-oxathiolane] | 6.5 | 0.02 to 0.05 (≈ 0.0809 to 0.202 µM) |  |  | >500 |  | >500 | 0.03 (≈ 0.121 µM)
